In patent US20260365670A1, “EGFR INHIBITORS AND USES THEREOF” (DIZAL (JIANGSU) PHARMACEUTICAL CO., LTD., priority 2022, published 2026):
Like-named read-outs stand apart in the source and are kept apart here.

Key:
EGFR wild type = biological target: T1, EGFR wild type (Homo sapiens, UniProt P00533); assay: Inhibition of EGFR wild type biochemical enzymatic activity (HTRF); conditions: EGFR wild type, 1 mM ATP, 1 h at room temperature
T1 construct: purchased Carna Bio
How it was run: (§1)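 Compounds at varying concentrations were tested against each EGFR form using 1 mM ATP and 1 μM TK Substrate-biotin. Reactions ran 1 h at room temperature in Mg2+/Mn2+ buffer with CHAPS, DTT and 0.5% DMSO. Time-resolved fluorescence gave IC50 by four-parameter fit.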

EGFR L858R = biological target: T2, EGFR L858R (Homo sapiens, UniProt P00533, L858R); assay: Inhibition of EGFR L858R biochemical enzymatic activity (HTRF); conditions: 1 mM ATP, 1 h at room temperature
T2 construct: purchased Carna Bio
T2 sequence (P00533 25-1210 L858R): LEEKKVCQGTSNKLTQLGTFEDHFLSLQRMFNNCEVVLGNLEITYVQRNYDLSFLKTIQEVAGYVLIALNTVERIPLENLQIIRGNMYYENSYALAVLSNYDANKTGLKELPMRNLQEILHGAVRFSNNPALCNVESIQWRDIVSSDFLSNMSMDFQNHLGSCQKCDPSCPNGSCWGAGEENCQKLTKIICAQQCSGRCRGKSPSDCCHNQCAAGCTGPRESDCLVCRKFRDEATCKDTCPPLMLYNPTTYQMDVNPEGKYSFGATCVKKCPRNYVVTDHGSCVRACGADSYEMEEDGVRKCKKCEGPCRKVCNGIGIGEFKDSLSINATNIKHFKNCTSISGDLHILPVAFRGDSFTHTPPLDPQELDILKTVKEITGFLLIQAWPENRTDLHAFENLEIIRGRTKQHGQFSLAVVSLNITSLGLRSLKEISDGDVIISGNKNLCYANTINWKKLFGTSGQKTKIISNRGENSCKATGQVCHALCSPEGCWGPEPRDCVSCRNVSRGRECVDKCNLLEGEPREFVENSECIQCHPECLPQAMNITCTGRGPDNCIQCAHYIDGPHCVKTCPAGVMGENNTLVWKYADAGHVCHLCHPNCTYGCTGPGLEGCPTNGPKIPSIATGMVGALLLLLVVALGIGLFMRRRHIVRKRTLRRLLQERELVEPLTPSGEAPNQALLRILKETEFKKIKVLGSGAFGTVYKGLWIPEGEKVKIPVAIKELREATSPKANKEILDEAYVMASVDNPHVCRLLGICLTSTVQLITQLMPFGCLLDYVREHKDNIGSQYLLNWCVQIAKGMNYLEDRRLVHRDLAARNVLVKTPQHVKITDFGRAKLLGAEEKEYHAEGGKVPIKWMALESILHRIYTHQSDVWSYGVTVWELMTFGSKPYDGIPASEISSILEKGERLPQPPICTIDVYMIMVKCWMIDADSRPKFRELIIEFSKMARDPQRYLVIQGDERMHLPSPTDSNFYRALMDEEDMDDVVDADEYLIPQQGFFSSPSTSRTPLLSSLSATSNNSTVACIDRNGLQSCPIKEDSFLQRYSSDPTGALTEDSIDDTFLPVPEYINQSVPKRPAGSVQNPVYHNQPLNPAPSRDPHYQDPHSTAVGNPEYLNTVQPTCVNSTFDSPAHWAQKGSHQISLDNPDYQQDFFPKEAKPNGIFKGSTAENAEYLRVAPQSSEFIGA
How it was run: as §1

EGFR L858R/T790M = biological target: T3, EGFR L858R/T790M (Homo sapiens, UniProt P00533, L858R/T790M); assay: Inhibition of EGFR L858R/T790M biochemical enzymatic activity (HTRF); conditions: EGFR L858R/T790M, 1 mM ATP, 1 h at room temperature
T3 construct: purchased Carna Bio
How it was run: as §1

EGFR Exon19Del = biological target: T4, EGFR Exon19Del (Homo sapiens, UniProt P00533, DEL746-750); assay: Inhibition of EGFR Exon19Del biochemical enzymatic activity (HTRF); conditions: 1 mM ATP, 1 h at room temperature
T4 construct: purchased Carna Bio
How it was run: as §1

EGFR Exon19Del/T790M = biological target: T5, EGFR Exon19Del/T790M (Homo sapiens, UniProt P00533, DEL746-750/T790M); assay: Inhibition of EGFR Exon19Del/T790M biochemical enzymatic activity (HTRF); conditions: EGFR Exon19Del/T790M, 1 mM ATP, 1 h at room temperature
T5 construct: purchased Carna Bio
How it was run: as §1

EGFR[T790M/C797S/L858R] = biological target: T6, EGFR[T790M/C797S/L858R] (Homo sapiens, UniProt P00533, C797S/L858R/T790M); assay: Inhibition of EGFR[T790M/C797S/L858R] biochemical enzymatic activity (HTRF); conditions: EGFR[T790M/C797S/L858R], 1 mM ATP, 1 h at room temperature
T6 construct: purchased Carna Bio
How it was run: as §1

[1] = biological target: T7, EGFR[T790M/C797S/d746-750] (Homo sapiens, UniProt P00533, C797S/DEL746-750/T790M); assay: Inhibition of EGFR[T790M/C797S/d746-750] biochemical enzymatic activity (HTRF); conditions: 1 mM ATP, 1 h at room temperature
T7 construct: purchased Carna Bio
T7 sequence (P00533 with tags, fused parts or gaps DEL746-750/T790M/C797S limits assumed): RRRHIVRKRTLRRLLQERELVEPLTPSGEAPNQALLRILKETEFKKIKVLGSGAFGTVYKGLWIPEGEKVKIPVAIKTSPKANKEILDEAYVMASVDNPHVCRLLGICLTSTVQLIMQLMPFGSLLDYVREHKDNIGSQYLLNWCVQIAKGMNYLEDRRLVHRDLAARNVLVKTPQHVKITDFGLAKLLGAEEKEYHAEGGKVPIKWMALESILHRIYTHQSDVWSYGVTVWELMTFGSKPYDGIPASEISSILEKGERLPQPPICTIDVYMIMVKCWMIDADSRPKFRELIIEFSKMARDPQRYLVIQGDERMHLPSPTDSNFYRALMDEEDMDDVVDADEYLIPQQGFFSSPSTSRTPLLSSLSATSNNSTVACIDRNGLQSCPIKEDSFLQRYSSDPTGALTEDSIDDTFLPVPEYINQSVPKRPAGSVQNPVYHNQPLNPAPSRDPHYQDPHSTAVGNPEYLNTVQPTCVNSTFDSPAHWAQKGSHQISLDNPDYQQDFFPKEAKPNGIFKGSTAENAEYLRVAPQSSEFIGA
How it was run: as §1

EGFR (d746-750 C797S) = biological target: T8, EGFR (d746-750 C797S) (Homo sapiens, UniProt P00533, C797S/DEL746-750); assay: Inhibition of EGFR (d746-750 C797S) biochemical enzymatic activity (HTRF); conditions: EGFR (d746-750 C797S), 1 mM ATP, 1 h at room temperature
T8 construct: purchased signalchem
T8 sequence (P00533 with tags, fused parts or gaps DEL746-750/C797S limits assumed): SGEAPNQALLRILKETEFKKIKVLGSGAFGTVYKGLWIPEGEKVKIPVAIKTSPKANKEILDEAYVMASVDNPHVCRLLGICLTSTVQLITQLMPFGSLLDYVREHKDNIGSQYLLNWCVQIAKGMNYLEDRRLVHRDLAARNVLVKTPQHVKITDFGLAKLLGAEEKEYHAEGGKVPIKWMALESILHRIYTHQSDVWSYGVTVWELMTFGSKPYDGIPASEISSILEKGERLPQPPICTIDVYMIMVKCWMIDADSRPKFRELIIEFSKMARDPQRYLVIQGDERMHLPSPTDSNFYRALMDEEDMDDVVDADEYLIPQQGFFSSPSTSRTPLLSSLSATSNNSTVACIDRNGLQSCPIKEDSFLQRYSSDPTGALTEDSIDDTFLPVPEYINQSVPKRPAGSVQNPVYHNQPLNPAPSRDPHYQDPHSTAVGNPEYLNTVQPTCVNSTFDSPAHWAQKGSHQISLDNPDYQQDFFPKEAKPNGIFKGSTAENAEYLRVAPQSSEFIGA
How it was run: as §1

EGFR (C797S L858R) = biological target: T9, EGFR (C797S L858R) (Homo sapiens, UniProt P00533, C797S/L858R); assay: Inhibition of EGFR (C797S L858R) biochemical enzymatic activity (HTRF); conditions: EGFR (C797S L858R), 1 mM ATP, 1 h at room temperature
T9 construct: purchased signalchem
T9 sequence (P00533 25-1210 C797S/L858R): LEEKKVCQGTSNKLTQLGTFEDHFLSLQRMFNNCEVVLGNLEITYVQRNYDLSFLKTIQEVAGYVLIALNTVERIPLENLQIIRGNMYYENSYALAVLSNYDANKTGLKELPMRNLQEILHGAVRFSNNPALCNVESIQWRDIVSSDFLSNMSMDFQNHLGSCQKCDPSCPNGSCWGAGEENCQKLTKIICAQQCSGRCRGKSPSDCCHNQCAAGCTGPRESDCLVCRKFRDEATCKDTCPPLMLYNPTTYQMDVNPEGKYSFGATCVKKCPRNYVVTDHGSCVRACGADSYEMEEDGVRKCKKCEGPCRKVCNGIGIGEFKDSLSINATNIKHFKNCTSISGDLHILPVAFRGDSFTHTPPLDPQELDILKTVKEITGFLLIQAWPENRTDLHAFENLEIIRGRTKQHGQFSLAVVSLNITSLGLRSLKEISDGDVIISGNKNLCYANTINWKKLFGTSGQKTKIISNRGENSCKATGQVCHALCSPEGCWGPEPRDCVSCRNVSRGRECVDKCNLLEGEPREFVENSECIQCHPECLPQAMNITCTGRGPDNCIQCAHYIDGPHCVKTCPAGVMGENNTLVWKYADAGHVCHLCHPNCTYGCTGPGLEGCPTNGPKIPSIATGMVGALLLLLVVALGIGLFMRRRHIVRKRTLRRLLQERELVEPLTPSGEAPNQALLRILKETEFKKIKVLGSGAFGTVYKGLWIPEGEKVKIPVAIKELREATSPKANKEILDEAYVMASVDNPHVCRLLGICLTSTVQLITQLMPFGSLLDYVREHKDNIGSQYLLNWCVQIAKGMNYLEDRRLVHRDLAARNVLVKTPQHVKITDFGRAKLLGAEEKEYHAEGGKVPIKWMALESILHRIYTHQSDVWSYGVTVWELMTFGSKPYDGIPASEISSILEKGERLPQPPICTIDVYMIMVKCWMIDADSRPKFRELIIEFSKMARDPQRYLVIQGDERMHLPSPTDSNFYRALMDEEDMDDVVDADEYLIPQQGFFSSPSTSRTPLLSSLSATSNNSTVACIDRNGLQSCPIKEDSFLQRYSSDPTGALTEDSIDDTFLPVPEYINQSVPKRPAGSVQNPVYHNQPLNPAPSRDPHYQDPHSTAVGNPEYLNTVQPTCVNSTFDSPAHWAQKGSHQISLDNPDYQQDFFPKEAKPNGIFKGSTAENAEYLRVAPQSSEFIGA
How it was run: as §1

[2] = system: Ba/F3 cells expressing EGFR mutations; assay: Cell proliferation assay, Ba/F3 cells expressing EGFR mutations (CellTiter-Glo, 72 hours); assay type: cell-based
How it was run: (§2)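 GI50 is the concentration giving 50% proliferation inhibition. Growth for this was normalised to a baseline viability reading taken when compound was added, and to DMSO wells. PC-9 (500 cells/well) and mutant-EGFR Ba/F3 (5000 cells/well) are treated after overnight seeding in RPMI1640-based medium.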

PC-9 = assay: Cell proliferation assay, PC-9 cells (CellTiter-Glo, 72 hours); assay type: cell-based; conditions: PC9 cells, read-out: GI50 PC9
How it was run: as §2

[3] = EGFR Exon19Del, read-out: IC50 @Del19
[4] = read-out: IC50 @T790M- C797S - L858R
[5] = EGFR[T790M/C797S/d746-750], read-out: IC50 @T790M - C797S - Del19
[6] = BaF3 cells, EGFR DEL19 - C797S, read-out: GI50 DEL19 - C797S/BaF3
[7] = BaF3 cells, EGFR DEL19 - T790-C797S, read-out: GI50 DEL19 - T790-C797S/BaF3
[8] = BaF3 cells, EGFR L858R - C797S, read-out: GI50 L858R - C797S/BaF3
[9] = BaF3 cells, EGFR L858R - T790-C797S, read-out: GI50 L858R - T790-C797S/BaF3
[10] = BaF3 cells, EGFR L858R - T790M, read-out: GI50 L858R - T790M/BaF3
[11] = BaF3 cells, EGFR L858R, read-out: GI50 L858R/BaF3
[12] = EGFR DEL19 - T790M, read-out: GI50 DEL19 - T790M

T1 sequence (P00533 25-1210): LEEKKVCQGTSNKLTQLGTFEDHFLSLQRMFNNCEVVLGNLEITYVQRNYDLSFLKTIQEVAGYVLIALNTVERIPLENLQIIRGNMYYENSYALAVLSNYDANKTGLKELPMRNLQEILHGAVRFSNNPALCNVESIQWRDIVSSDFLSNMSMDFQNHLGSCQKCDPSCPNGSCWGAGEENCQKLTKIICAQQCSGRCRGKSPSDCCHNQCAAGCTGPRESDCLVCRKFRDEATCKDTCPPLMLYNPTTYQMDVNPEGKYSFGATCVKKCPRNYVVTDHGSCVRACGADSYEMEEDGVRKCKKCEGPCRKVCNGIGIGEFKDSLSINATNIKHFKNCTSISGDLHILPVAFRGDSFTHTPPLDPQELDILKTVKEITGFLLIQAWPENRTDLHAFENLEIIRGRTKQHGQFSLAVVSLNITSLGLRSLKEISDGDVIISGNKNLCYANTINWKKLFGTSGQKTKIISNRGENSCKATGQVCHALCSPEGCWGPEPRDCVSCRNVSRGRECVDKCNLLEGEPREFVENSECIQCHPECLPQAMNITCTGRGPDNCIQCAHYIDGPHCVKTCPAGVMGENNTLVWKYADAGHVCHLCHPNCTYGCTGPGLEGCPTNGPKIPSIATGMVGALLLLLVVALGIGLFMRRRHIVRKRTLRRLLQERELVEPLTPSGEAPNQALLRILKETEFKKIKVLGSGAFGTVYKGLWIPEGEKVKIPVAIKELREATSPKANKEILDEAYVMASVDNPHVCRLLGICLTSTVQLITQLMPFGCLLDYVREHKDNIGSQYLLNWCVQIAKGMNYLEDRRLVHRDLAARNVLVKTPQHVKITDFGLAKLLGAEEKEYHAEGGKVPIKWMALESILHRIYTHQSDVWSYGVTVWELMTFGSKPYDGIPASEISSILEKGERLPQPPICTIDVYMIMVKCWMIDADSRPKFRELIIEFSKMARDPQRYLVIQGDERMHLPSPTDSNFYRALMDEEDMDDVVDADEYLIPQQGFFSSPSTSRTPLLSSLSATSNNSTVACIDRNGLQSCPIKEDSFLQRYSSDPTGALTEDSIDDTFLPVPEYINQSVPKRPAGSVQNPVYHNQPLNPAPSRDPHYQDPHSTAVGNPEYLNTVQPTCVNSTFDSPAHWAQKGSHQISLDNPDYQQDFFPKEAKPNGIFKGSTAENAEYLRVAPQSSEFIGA

| SMILES | IC50 (EGFR wild type; read-out: IC50 @WT) [nM] | IC50 (EGFR L858R; read-out: IC50 @L858R) [nM] | IC50 (EGFR L858R/T790M; read-out: IC50 @L858R-T790M) [nM] | IC50 (EGFR Exon19Del; [3]) [nM] | IC50 (EGFR Exon19Del/T790M; read-out: IC50 @Del19-T790M) [nM] | IC50 (EGFR[T790M/C797S/L858R]; [4]) [nM] | IC50 [1, 5] [nM] | IC50 (EGFR (d746-750 C797S); read-out: IC50 @Del19-C797S) [nM] | IC50 (EGFR (C797S L858R); read-out: IC50 @L858-C797S) [nM] | GI50 [2, 6] [nM] | GI50 [2, 7] [nM] | GI50 [2, 8] [nM] | GI50 [2, 9] [nM] | GI50 [2, 10] [nM] | GI50 [2, 11] [nM] | GI50 [2, 12] [nM] | GI50 (PC-9) [nM] | also measured |
| --- | --- | --- | --- | --- | --- | --- | --- | --- | --- | --- | --- | --- | --- | --- | --- | --- | --- | --- |
| Cc1cc2cc(n1)-c1cnn(C)c1OCCN1CC3CCC(C3)(C1)n1c(nc3ccc(N4CCN(C)CC4)cc31)NC2=O (single isomer, unassigned) [Example B9A, 15,21-Dimethyl-5-(4-methylpiperazin-1-yl)-23-oxa-2,9,11,16,20,21,26-heptaazaheptacyclo[24.4.1.1^{1,28}.1^{13,17}.0^{2,10}.0^{3,8}.0^{18,22}]tritriaconta-3,5,7,9,13,15,17(33),18(22),19-nonaen-12-one] | > 5000 | > 5000 | > 5000 | 432 | 1070 | > 5000 | 245 | 454 | > 5000 | – | – | – | – | – | – | – | – | GI50 ([2]; Mus musculus, BaF3, 72 h, BaF3 cells, EGFR DEL19 - C797S, read-out: GI50 DEL19 - C797S/BaF3): 83 nM; GI50 ([2]; Mus musculus, BaF3, 72 h, BaF3 cells, EGFR DEL19 - T790-C797S, read-out: GI50 DEL19 - T790-C797S/BaF3): 107 nM; GI50 ([2]; Mus musculus, BaF3, 72 h, BaF3 cells, EGFR L858R - C797S, read-out: GI50 L858R - C797S/BaF3): 386 nM; GI50 ([2]; Mus musculus, BaF3, 72 h, BaF3 cells, EGFR L858R - T790-C797S, read-out: GI50 L858R - T790-C797S/BaF3): 46 nM; GI50 ([2]; Mus musculus, BaF3, 72 h, BaF3 cells, EGFR L858R - T790M, read-out: GI50 L858R - T790M/BaF3): 253 nM; GI50 ([2]; Mus musculus, BaF3, 72 h, BaF3 cells, EGFR L858R, read-out: GI50 L858R/BaF3): 471 nM; GI50 ([2]; Mus musculus, BaF3, 72 h, EGFR DEL19 - T790M, read-out: GI50 DEL19 - T790M): 135 nM; GI50 (PC-9; Homo sapiens, PC-9, 72 h): 438 nM |
| Cc1cc2cc(n1)-c1cnn(C)c1OCCN1CC3CCC(C3)(C1)n1c(nc3ccc(N4CCC(N(C)C)CC4)cc31)NC2=O (single isomer, unassigned) [Example B40A, 5-[4-(dimethylamino)piperidin-1-yl]-15,21-dimethyl-23-oxa-2,9,11,16,20,21,26-heptaazaheptacyclo[24.4.1.1^{1,28}.1^{13,17}.0^{2,10}.0^{3,8}.0^{18,22}]tritriaconta-3,5,7,9,13,15,17(33),18(22),19-nonaen-12-one] | – | – | – | – | – | – | – | – | – | 212 | 164 | 312 | 41 | 194 | 877 | 258 | 950 | IC50 (EGFR wild type; IC50 @WT): > 5000 nM; IC50 (EGFR L858R; IC50 @L858R): > 5000 nM; IC50 (EGFR L858R/T790M; IC50 @L858R-T790M): > 5000 nM; IC50 (EGFR Exon19Del; IC50 @Del19, EGFR Exon19Del): > 5000 nM; IC50 (EGFR Exon19Del/T790M; IC50 @Del19-T790M): 430 nM; IC50 (EGFR[T790M/C797S/L858R]; IC50 @T790M- C797S - L858R): > 5000 nM; IC50 ([1]; IC50 @T790M - C797S - Del19, EGFR[T790M/C797S/d746-750]): 123 nM; IC50 (EGFR (d746-750 C797S); IC50 @Del19-C797S): 2480 nM; IC50 (EGFR (C797S L858R); IC50 @L858-C797S): > 5000 nM |
| Cc1cc2cc(n1)-c1cnn(C)c1OCCN1CCOCC(C1)n1c(nc3ccccc31)NC2=O (stereo not shown) [Example B7B, 15,21-dimethyl-23,29-dioxa-2,9,11,16,20,21,26-heptaazahexacyclo[24.4.1.1^{13,17}.0^{2,10}.0^{3,8}.0^{18,22}]dotriaconta-3,5,7,9,13(32),14,16,18(22),19-nonaen-12-one] | > 5000 | > 5000 | 909 | 864 | 42 | 529 | 17 | 322 | 4430 | 173 | 130 | 253 | 123 | 292 | 1600 | 189 | 469 | – |
| Cc1cc2cc(n1)-c1cnn(C)c1OCCN1CC3CCC(C3)(C1)n1c(nc3ccc(N4CCC(N5CCN(C)CC5)CC4)cc31)NC2=O (single isomer, unassigned) [Example B59B] | 360 | 27 | 7.7 | 12 | 10 | 4.4 | 6.1 | 5 | 9.5 | 11 | 12 | 27 | 3 | 11 | 36 | 13 | 32 | – |
| Cc1cc2cc(n1)-c1cnn(C)c1OCCN1CC3CCC(C3)(C1)n1c(nc3ccc(N4CC5CN(C)CC5C4)cc31)NC2=O (single isomer, unassigned) [Example B43A] | > 5000 | > 5000 | > 5000 | > 5000 | 1160 | > 5000 | 200 | > 5000 | > 5000 | 193 | 200 | 442 | 68 | 305 | 998 | 271 | 1320 | – |
